In patent publication US8598207B2, “Compositions containing opioid antagonists” (Adolor Corporation, priority 2004, dated 2013):
Where two headings read alike, the source gives them in different places.

What was measured:
[1] = Blood:plasma distribution ratio; assay type: in vitro ADME; settings: blood and plasma
[2] = Solubility in water; assay type: physicochemical

blood plasma ratio [1]	Solubility in water ([2]; dihydrate)	Compound	Solubility in water ([2]; listed as compound of formula (II), dihydrate)	Solubility in water [2]
0.68	extremely low solubility in water	C[C@H]1CN(C[C@H](Cc2ccccc2)C(=O)NCC(=O)O)CC[C@@]1(C)c1cccc(O)c1 [Alvimopan, [[2(S)-[[4(R)-(3-hydroxyphenyl)-3(R),4-dimethyl-1-piperidinyl]methyl]-1-oxo-3-phenylpropyl]amino]acetic acid dihydrate]	low solubility in water except at low or high pH conditions	
		C[C@H]1CN(C[C@H](Cc2ccccc2)C(=O)O)CC[C@@]1(C)c1cccc(O)c1.O [active metabolite, (αS,3R,4R)-4-(3-hydroxyphenyl)-3,4-dimethyl-α-(phenylmethyl)-1-piperidinepropanoic acid monohydrate]		extremely low solubility in water
